Laboratory results as given in patent US20210290580A1, “New use of carbamate ß phenylethanolamine analogues for enhancing intracellular clearance of LDL cholesterol and for combining therapy with statins to enhance the efficacy and reduce adverse effects” (priority 2018, published 2021).

Tests used:
LDL receptors = experiment: LDL receptor expression, anti-LDLR immunofluorescence in liver cells; assay type: cell-based, Mouse; details: 24 hours; for Up-regulating of LDL receptors (Intensity of fluoresces) MEAN %: hepatic (AML12) cells, control = 100
Protocol: Cells were incubated with florescence labeled LDL to study the up-taking and metabolite of LDL cholesterol by the cells. LDL specific antibody were used to study LDL receptors expressed by the cells. […] After 24 hours of treatments, the cells were washed and fixed with paraformaldehyde. Cells were then incubated with anti-LDLR primary antibody with 1:200 dilution at room temperature for 4 hours. After washed, the second antibody Alexa Fluor 488 with 1:200 dilutions was added and incubated at room temperature for 2 hours. The cells were washed again before examined under fluorescent microscope. The fluorescence anti-body bound LDL receptors in green and either bound or internalized fluoresces labeled LDL in red were examined separately or after merging. Fluorescent microscope equipped with a digital camera (Axio Observer 7). Computer software was used to quantify the intensity of fluorescence, which is correlated with the amount of LDL and LDL receptors bounded to antibodies.

Mouse liver AML12 cells [1] = experiment: Up-taking of fluorescence labeled LDL by liver cells; assay type: cell-based; details: 10 μM and 20 μM, 24 hours, compared between groups
Protocol: Mouse liver AML12 cells were seeded in 24 well plates in DMEM/F12 and supplemented with 10% heat-inactivated fetal bovine serum. Cells were incubated with florescence labeled LDL to study the up-taking and metabolite of LDL cholesterol by the cells. LDL specific antibody were used to study LDL receptors expressed by the cells. […] The fluorescence anti-body bound LDL receptors in green and either bound or internalized fluoresces labeled LDL in red were examined separately or after merging. Fluorescent microscope equipped with a digital camera (Axio Observer 7). Computer software was used to quantify the intensity of fluorescence, which is correlated with the amount of LDL and LDL receptors bounded to antibodies.

Human liver HepG2 cells = experiment: Intracellular cholesterol content in HepG2 cells loaded with LDL (Total Cholesterol Assay Kit); assay type: cell-based; details: LDL 40 μg/ml, 24 hours, LDL control = 100
Protocol: Human liver HepG2 cells were seeded in six well plates in DMEM/F12 supplemented with 10% heat-inactivated fetal bovine serum. Cells were then treated with different doses of R-bambuterol (R-BM) in the present of LDL (40 μg/ml). After 24 hours of incubation, total intracellular and extracellular cholesterol content were determined using Total Cholesterol Assay Kit E105 (Applygen Technologies Inc., Beijing, China) according to the manufacturer's protocol.

Mouse liver AML12 cells [2] = experiment: Intracellular cholesterol content in AML12 cells loaded with LDL; assay type: cell-based; details: for Intracellular cholesterol MEAN % (Synergistic Effects of Combining R-bambuterol and Statin): 10 μM (each drug 10 μM in the combination), LDL 40 μg/ml, AML12 cells, LDL Ctrl = 100; for Reduction of intercellular cholesterol, in words: 10 μM, Mouse liver AML12 cells
Protocol: Cells were then treated with different doses of R-bambuterol (R-BM) in the present of LDL (40 μg/ml). After 24 hours of incubation, total intracellular and extracellular cholesterol content were determined using Total Cholesterol Assay Kit E105 (Applygen Technologies Inc., Beijing, China) according to the manufacturer's protocol. The intracellular cholesterol is similar in control and LDL groups.

[3] = tested on: Pulmonary artery smooth muscle cell (PASMC)
Protocol: Cells were cultivated for 24 hours at room temperature. The cells then replaced again with FBS-free medium containing 10% CCK-8 reagent and cultivated for 3 hours in the dark.
A Multi-function micro plate reader (TriStar2S LB942) was used to measure the cell viability.
Cells added no drugs (0 μM) were used as control.

[4] = 20 μM (each drug 20 μM in the combination)

SMILES	Up-regulating of LDL receptors (Intensity of fluoresces) MEAN % (LDL receptors; 10 μM) [%]	Up-regulating of LDL receptors (Intensity of fluoresces) MEAN % (LDL receptors; [4]) [%]	Increase in LDL receptors expression compared with statin treated groups (LDL receptors; AML12 cells)	Bound and intracellular fluorescence labeled LDL (Mouse liver AML12 cells [1])	Reduction of intercellular LDL cholesterol MEAN % (Human liver HepG2 cells; 5 μM) [%]	Reduction of intercellular LDL cholesterol MEAN % (Human liver HepG2 cells; 10 μM) [%]	Reduction of intercellular LDL cholesterol MEAN % (Human liver HepG2 cells; 20 μM) [%]	Reduction of intercellular LDL cholesterol MEAN % (Human liver HepG2 cells; 40 μM) [%]	Reduction of intercellular LDL cholesterol MEAN % (Human liver HepG2 cells; 80 μM) [%]	Intracellular cholesterol MEAN % (Synergistic Effects of Combining R-bambuterol and Statin) (Mouse liver AML12 cells [2]) [%]	Reduction of intercellular cholesterol, in words (Mouse liver AML12 cells [2])	Toxicity to the viability of PASMC, in words [3]
CN(C)C(=O)Oc1cc(OC(=O)N(C)C)cc(C(O)CNC(C)(C)C)c1 (stereo not shown) [R-BM, R-bambuterol]	202.9	337.2	twice as much as seen in statin treated groups	significantly more bound and intracellular fluorescence labeled LDL	94.07	69.26	28.54	36.04	21.02	94.5	less reduction of intercellular cholesterol	no toxicity
CC(C)c1c(C(=O)Nc2ccccc2)c(-c2ccccc2)c(-c2ccc(F)cc2)n1CC[C@@H](O)C[C@@H](O)CC(=O)O [Statin, Atorvastatin]	159.1	140.2	–	–	–	–	–	–	–	95.3	little effects on intercellular cholesterol	–
